Results from patent publication US8034787B2, “Enzyme-cleavable prodrug compounds” (Medarex, Inc., priority 1998, dated 2011).
Read-outs that look alike come from different tables or passages of the source.

Key:
MX-1 tumors = assay type: in vivo, mice
Protocol: MX-1 tumors which are moderately doxorubicin-sensitive, human breast carcinoma xenografts, were implanted subcutaneously (s.c.) and mice were weighed and tumors were measured (by caliper) at least once a week prior to start of dosing (Day 0), then twice a week during the study. Immediately before the start of dosing (Study Day −2 to Day 0), mice were randomized to various groups based on the weight of the tumors. Mice were euthanized after the tumors reached a cutoff weight of 1.5 g (cancer endpoint). Studies were terminated at Day 60.

[1] = Aggregation, Centricon ultrafiltration; assay type: physicochemical; conditions: 17.4 μMol/ml in distilled water, 2 hr at 1500 g; listed as Dox
LS174T tumor = system: LS174T tumor
Source text: Statistically significant from vehicle control group: *: p<0.05; **: p<0.01 (unpaired t-test).

HL-60 cells = assay: 3H-thymidine incorporation proliferation assay; assay type: cell-based; conditions: Homo sapiens, HL-60, 24 hours
Protocol: Promyelocytic leukemia cells, HL-60, were cultured in RPMI media containing 10% heat inactivated fetal calf serum (FCS). On the day of the study, the cells were collected, washed and resuspended at a concentration of 0.5×10^6 cells/ml in RPMI containing 10% FCS. 100 μl/well of cell suspension was added to 96 well plates. […] Finally, 10 μl of a 100 μCi/ml ^3H-thymidine was added per well and the plates were incubated for 24 hours. The plates were harvested using a 96 well Harvester (Packard Instruments) and counted on a Packard Top Count counter. Four parameter logistic curves were fitted to the ^3H-thymidine incorporation as a function of drug molarity using Prism software to determine IC50 values.

[2] = Acute toxicity of N-capped prodrugs, intravenous bolus in mice; assay type: in vivo; conditions: intravenous bolus of 250 mg/kg (Dox-HCl eq.), three to five mice per group
[3] = Single dose Maximum Tolerated Dose (SD-MTD) study
LS174T tumors = assay: LS174T xenograft, five weekly intravenous doses (Example 17)
[4] = 3 mg/kg, 5 doses, one every 7 days

In the case of `COc1cccc2c1C(=O)c1c(O)c3c(c(O)c1C2=O)C[C@@](O)(C(=O)CO)C[C@@H]3O[C@H]1C[C@H](N)[C@H](O)[C@H](C)O1` [Doxorubicin], the “MDS” value (MX-1 tumors; [4]) is reported as 27.3 ± 2.6 days, the “Survival: MDS Extension over controls” value (MX-1 tumors; [4]) is reported as 33 ± 13% and the “TGD” value (MX-1 tumors; [4]) is reported as 6.8 ± 2.7 days. For the same molecule, the “Tumor Weight (mg, Day 18)” value (MX-1 tumors; [4]) was 906 ± 150 mg, the TGI (MX-1 tumors; 3 mg/kg, 5 doses, one every 7 days, over control at Day 18) was 22 ± 16% and the “tolerability of dose regimens” value (MX-1 tumors; mouse, in vivo) was “very well tolerated”. For the same molecule, the “3000 MWCO Filt.” value [1] was 81%, the “MDS” value (LS174T tumor; [4]) was 25.8 ± 2.5 days and the “MDS Extension over controls” value (LS174T tumor; [4]) was 3 ± 13%. The “Mean Tumor Weight (mg, Day 19)” value (LS174T tumor; [4]) was 1035 ± 180 mg, the “TGD” value (LS174T tumor; [4]) was 0.8 ± 3.1 days and the TGI (LS174T tumor; [4]) was 0%. For the same molecule, the “efficacy in inhibiting LS-174T tumor and extending survival” value (LS174T tumor; doxorubicin 3 mg/kg) was “ineffective”, the “tolerability of dose regimens” value (LS174T tumor; mouse, in vivo) was “very well tolerated” and the IC50 (HL-60 cells) was 0.075 µM.
For `COc1cccc2c1C(=O)c1c(O)c3c(c(O)c1C2=O)C[C@@](O)(C(=O)CO)C[C@@H]3O[C@H]1C[C@H](NC(=O)[C@H](CC(C)C)NC(=O)[C@H](C)NC(=O)[C@H](CC(C)C)NC(=O)CCNC(=O)CCC(=O)O)[C@H](O)[C@H](C)O1` [Suc-βAla-Leu-Ala-Leu-Dox, succinyl-β-Ala-Leu-Ala-Leu-Dox], the “mice with up to 20% weight loss” value (MX-1 tumors; 71 mg/kg group, after Day 46) was “one out of ten”, the “tolerability of dose regimens” value (MX-1 tumors; all dose regimens, 5 doses, one every 7 days) was “very well tolerated” and the “survival up to 8 days” value [2] was “all animals survived”. For the same molecule, the “tolerability of dose regimens” value (LS174T tumor; all dose regimens, Q7D×5) was “very well tolerated”, the “mortality by Day 35” value ([3]; 75 mg/kg dose group) was 40% and the “acute toxicity within 24 hours” value ([3]; 50, 75 or 100 mg/kg intravenous bolus) was “no acute toxicity”. The “body weight loss (of initial weight)” value ([3]; 75 and 100 mg/kg dose groups) was over 20%, the “SD-MTD (mg/kg Dox =)” value ([3]; doxorubicin equivalents) was 28 mg/kg Dox = and the “toxicity profile compared with doxorubicin” value ([3]; preliminary observations) was “lack of evidence of characteristic GI-toxicity, cardiotoxicity and myleosuppression of doxorubicin”. The “tolerability under repeat-dose levels” value (LS174T tumors) was “safe and well-tolerated”.
